Measurements reported in ChEMBL document CHEMBL1124314, “Development of phosphonate derivatives of gadolinium chelates for NMR imaging of calcified soft tissues” (J Med Chem, 1989).

What was measured:
Rattus norvegicus [1] = species on record: Rattus norvegicus; experiment: Biodistribution in rat muscle in the presence of NCA Gd/0.01 M lip; assay type: ADME, organism-based, Muscle tissue; settings: in vivo
Rattus norvegicus [2] = experiment: Biodistribution in rat liver by in the presence 50 Gd/kg at 15 min; assay type: ADME, organism-based; settings: in vivo, 0.25 h
Rattus norvegicus [3] = species on record: Rattus norvegicus; experiment: Biodistribution in rat bone in the presence of NCA Gd/0.01 M lip; assay type: ADME, organism-based, Bone element; settings: in vivo
Rattus norvegicus [4] = experiment: Biodistribution in rat liver in the presence of 50 Gd/kg at 2 hr; assay type: ADME, organism-based; settings: in vivo
Rattus norvegicus [5] = species on record: Rattus norvegicus; experiment: Biodistribution in rat l. intestine in the presence of 0.01 M carrier at 1 hr; assay type: ADME, organism-based; settings: in vivo
Rattus norvegicus [6] = experiment: Biodistribution in rat stomach in the presence of 50 Gd/kg at 15 min; assay type: ADME, organism-based; settings: in vivo, 0.25 h
Rattus norvegicus [7] = species on record: Rattus norvegicus; experiment: Biodistribution in rat heart in the presence of 0.05 M Gd/0.15 M lig; assay type: ADME, organism-based; settings: in vivo
Rattus norvegicus [8] = species on record: Rattus norvegicus; experiment: Biodistribution in rat blood in the presence of NCA Gd/0.01 M lip; assay type: ADME, organism-based; settings: in vivo
Rattus norvegicus [9] = experiment: Biodistribution in rat spleen in the presence of 50 Gd/kg at 6 hr; assay type: ADME, organism-based; settings: in vivo
Rattus norvegicus [10] = experiment: Biodistribution in rat blood in the presence of 50 Gd/kg at 6 hr; assay type: ADME, organism-based; settings: in vivo
Rattus norvegicus [11] = species on record: Rattus norvegicus; experiment: Biodistribution in rat blood in the presence of 0.05 M Gd/0.15 M lig; assay type: ADME, organism-based; settings: in vivo
Rattus norvegicus [12] = experiment: Biodistribution in rat s. intestine in the presence of 50 Gd/kg at 6 hr; assay type: ADME, organism-based; settings: in vivo
Rattus norvegicus [13] = species on record: Rattus norvegicus; experiment: Biodistribution in rat s. intestine in the presence of NCA (No carrier added); assay type: ADME, organism-based; settings: in vivo
Rattus norvegicus [14] = species on record: Rattus norvegicus; experiment: Biodistribution in rat heart in the presence of NCA Gd/0.01 M lip; assay type: ADME, organism-based; settings: in vivo
Rattus norvegicus [15] = experiment: Biodistribution in rat s. intestine in the presence of 50 Gd/kg at 2 hr; assay type: ADME, organism-based; settings: in vivo
Rattus norvegicus [16] = species on record: Rattus norvegicus; experiment: Biodistribution in rat muscle in the presence of 0.05 M Gd/0.15 M lig; assay type: ADME, organism-based, Muscle tissue; settings: in vivo
Rattus norvegicus [17] = experiment: Biodistribution in rat blood in the presence of 50 Gd/kg at 2 hr; assay type: ADME, organism-based; settings: in vivo
Rattus norvegicus [18] = experiment: Biodistribution in rat spleen in the presence of 50 Gd/kg at 15 min; assay type: ADME, organism-based; settings: in vivo, 0.25 h
Rattus norvegicus [19] = experiment: Biodistribution in rat spleen in the presence of 50 Gd/kg at 2 hr; assay type: ADME, organism-based; settings: in vivo
Rattus norvegicus [20] = experiment: Biodistribution in rat stomach in the presence of 50 Gd/kg at 2 hr; assay type: ADME, organism-based; settings: in vivo
Rattus norvegicus [21] = species on record: Rattus norvegicus; experiment: Biodistribution in rat liver in the presence of NCA Gd/0.01 M lip; assay type: ADME, organism-based; settings: in vivo
Rattus norvegicus [22] = experiment: Biodistribution in rat l. intestine in the presence of 50 Gd/kg at 2 hr; assay type: ADME, organism-based; settings: in vivo
Rattus norvegicus [23] = species on record: Rattus norvegicus; experiment: Biodistribution in rat kidney in the presence of NCA Gd/0.01 M lip; assay type: ADME, organism-based; settings: in vivo
Rattus norvegicus [24] = species on record: Rattus norvegicus; experiment: Biodistribution in rat kidney in the presence of 0.05 M Gd/0.15 M lig; assay type: ADME, organism-based; settings: in vivo
Rattus norvegicus [25] = experiment: Biodistribution in rat blood in the presence of 50 Gd/kg at 15 min; assay type: ADME, organism-based; settings: in vivo, 0.25 h
Rattus norvegicus [26] = species on record: Rattus norvegicus; experiment: Biodistribution in rat liver by in the presence of 0.05 M Gd/0.15 M lig; assay type: ADME, organism-based; settings: in vivo
Rattus norvegicus [27] = species on record: Rattus norvegicus; experiment: Biodistribution in rat bone in the presence of 0.05 M Gd/0.15 M lig; assay type: ADME, organism-based, Bone element; settings: in vivo
Rattus norvegicus [28] = experiment: Biodistribution in rat liver in the presence of 50 Gd/kg at 6 hr; assay type: ADME, organism-based; settings: in vivo
Rattus norvegicus [29] = experiment: Biodistribution in rat l. intestine in the presence of 50 Gd/kg at 6 hr; assay type: ADME, organism-based; settings: in vivo
Rattus norvegicus [30] = species on record: Rattus norvegicus; experiment: Biodistribution in rat spleen in the presence of NCA Gd/0.01 M lip; assay type: ADME, organism-based; settings: in vivo

CC(C(=O)O)C(C(=O)O)(P(=O)(O)O)P(=O)(O)O (stereo not given)
ID/organ (Rattus norvegicus [1]): 2.38%
ID/organ (Rattus norvegicus [2]): 34.2%
ID/organ (Rattus norvegicus [3]): 6.91%
ID/organ (Rattus norvegicus [4]): 74.3%
ID/organ (Rattus norvegicus [5]): 0.138%
ID/organ (Rattus norvegicus [6]): 0.221%
ID/organ (Rattus norvegicus [7]): 0.059%
ID/organ (Rattus norvegicus [8]): 2.62%
ID/organ (Rattus norvegicus [9]): 8.12%
ID/organ (Rattus norvegicus [10]): 0.217%
ID/organ (Rattus norvegicus [11]): 0.319%
ID/organ (Rattus norvegicus [12]): 0.675%
ID/organ (Rattus norvegicus [13]): 0.86%
ID/organ (Rattus norvegicus [14]): 0.099%
ID/organ (Rattus norvegicus [15]): 1.03%
ID/organ (Rattus norvegicus [16]): 0.124%
ID/organ (Rattus norvegicus [17]): 0.26%
ID/organ (Rattus norvegicus [18]): 11.2%
ID/organ (Rattus norvegicus [19]): 12.5%
ID/organ (Rattus norvegicus [20]): 0.178%
ID/organ (Rattus norvegicus [21]): 67.3%
ID/organ (Rattus norvegicus [22]): 0.334%
ID/organ (Rattus norvegicus [23]): 0.339%
ID/organ (Rattus norvegicus [24]): 0.447%
ID/organ (Rattus norvegicus [25]): 23.4%
ID/organ (Rattus norvegicus [26]): 73%
ID/organ (Rattus norvegicus [27]): 1.18%
ID/organ (Rattus norvegicus [28]): 80.2%
ID/organ (Rattus norvegicus [29]): 0.293%
ID/organ (Rattus norvegicus [30]): 2.67%
